Data published in the NIST ThermoML archive (doi:10.1016/j.jct.2010.11.004).
Numbers after ± are expanded uncertainties.

Assay: excess molar enthalpy (molar enthalpy of mixing); xn = mol fraction of the nth substance listed
Conditions: 298.15 K, 101 kPa, Liquid, ISOTHERMAL TITRATION CALORIMETRY

CCCCCCCCC(C)=O [2-decanone] + CCCCCCCCCCCC
Conditions | excess molar enthalpy [kcal/mol]
x1 = 0.0258 | 0.0318 ± 0.000478
x1 = 0.0503 | 0.059 ± 0.000956
x1 = 0.0736 | 0.0822 ± 0.0012
x1 = 0.0958 | 0.102 ± 0.00143
x1 = 0.1169 | 0.119 ± 0.00167
x1 = 0.1371 | 0.134 ± 0.00167
x1 = 0.1612 | 0.15 ± 0.00191
x1 = 0.1841 | 0.164 ± 0.00215
x1 = 0.2057 | 0.175 ± 0.00215
x1 = 0.2262 | 0.185 ± 0.00239
x1 = 0.2456 | 0.193 ± 0.00239
x1 = 0.2641 | 0.2 ± 0.00263
x1 = 0.2847 | 0.206 ± 0.00263
x1 = 0.3042 | 0.211 ± 0.00263
x1 = 0.3226 | 0.216 ± 0.00287
x1 = 0.3401 | 0.219 ± 0.00287
x1 = 0.3567 | 0.222 ± 0.00287
x1 = 0.3725 | 0.224 ± 0.00287
x1 = 0.3897 | 0.226 ± 0.00287
x1 = 0.406 | 0.227 ± 0.00287
x1 = 0.4215 | 0.228 ± 0.00287
x1 = 0.4362 | 0.228 ± 0.00287
x1 = 0.4501 | 0.227 ± 0.00287
x1 = 0.4634 | 0.227 ± 0.00287
x1 = 0.4782 | 0.226 ± 0.00287
x1 = 0.4923 | 0.225 ± 0.00287
x1 = 0.5055 | 0.224 ± 0.00287
x1 = 0.5182 | 0.222 ± 0.00287
x1 = 0.5302 | 0.22 ± 0.00287
x1 = 0.5416 | 0.218 ± 0.00287
x1 = 0.5543 | 0.216 ± 0.00287
x1 = 0.5663 | 0.214 ± 0.00263
x1 = 0.5777 | 0.211 ± 0.00263
x1 = 0.5885 | 0.209 ± 0.00263
x1 = 0.5987 | 0.206 ± 0.00263
x1 = 0.6049 | 0.204 ± 0.00263
x1 = 0.6179 | 0.201 ± 0.00263
x1 = 0.6311 | 0.197 ± 0.00263
x1 = 0.6448 | 0.193 ± 0.00239
x1 = 0.6592 | 0.188 ± 0.00239
x1 = 0.6742 | 0.183 ± 0.00239
x1 = 0.6899 | 0.178 ± 0.00239
x1 = 0.704 | 0.173 ± 0.00215
x1 = 0.7187 | 0.167 ± 0.00215
x1 = 0.7341 | 0.161 ± 0.00215
x1 = 0.7501 | 0.154 ± 0.00191
x1 = 0.7668 | 0.146 ± 0.00191
x1 = 0.7843 | 0.137 ± 0.00191
x1 = 0.8 | 0.13 ± 0.00167
x1 = 0.8163 | 0.121 ± 0.00167
x1 = 0.8334 | 0.112 ± 0.00143
x1 = 0.8511 | 0.102 ± 0.00143
x1 = 0.8696 | 0.0918 ± 0.0012
x1 = 0.889 | 0.0798 ± 0.0012
x1 = 0.9057 | 0.0686 ± 0.000956
x1 = 0.9231 | 0.0571 ± 0.000717
x1 = 0.9412 | 0.0442 ± 0.000717
x1 = 0.96 | 0.0308 ± 0.000478
x1 = 0.9796 | 0.0158 ± 0.000478

CCCCCOCCCCC [dipentyl ether] + CCCCCCCCCCCCCC
Conditions | excess molar enthalpy [kcal/mol]
x1 = 0.0299 | 0.00693 ± 0.000239
x1 = 0.0581 | 0.0129 ± 0.000239
x1 = 0.0847 | 0.0182 ± 0.000478
x1 = 0.1099 | 0.0227 ± 0.000478
x1 = 0.1337 | 0.0265 ± 0.000478
x1 = 0.1562 | 0.0304 ± 0.000478
x1 = 0.1776 | 0.0335 ± 0.000478
x1 = 0.198 | 0.0361 ± 0.000478
x1 = 0.22 | 0.0392 ± 0.000717
x1 = 0.2447 | 0.0416 ± 0.000717
x1 = 0.266 | 0.044 ± 0.000717
x1 = 0.2862 | 0.0459 ± 0.000717
x1 = 0.3054 | 0.0473 ± 0.000717
x1 = 0.3235 | 0.0485 ± 0.000717
x1 = 0.3407 | 0.0497 ± 0.000717
x1 = 0.357 | 0.0507 ± 0.000717
x1 = 0.3761 | 0.0519 ± 0.000717
x1 = 0.394 | 0.0526 ± 0.000717
x1 = 0.411 | 0.0531 ± 0.000717
x1 = 0.427 | 0.0535 ± 0.000717
x1 = 0.4422 | 0.0538 ± 0.000717
x1 = 0.4566 | 0.054 ± 0.000717
x1 = 0.4702 | 0.0543 ± 0.000717
x1 = 0.4832 | 0.0543 ± 0.000717
x1 = 0.4927 | 0.0543 ± 0.000717
x1 = 0.5031 | 0.0545 ± 0.000717
x1 = 0.5139 | 0.0545 ± 0.000717
x1 = 0.5253 | 0.0547 ± 0.000717
x1 = 0.5371 | 0.0545 ± 0.000717
x1 = 0.5494 | 0.0545 ± 0.000717
x1 = 0.5604 | 0.0543 ± 0.000717
x1 = 0.5718 | 0.054 ± 0.000717
x1 = 0.5838 | 0.0535 ± 0.000717
x1 = 0.5962 | 0.0533 ± 0.000717
x1 = 0.6092 | 0.0528 ± 0.000717
x1 = 0.6228 | 0.0521 ± 0.000717
x1 = 0.6369 | 0.0511 ± 0.000717
x1 = 0.6502 | 0.0507 ± 0.000717
x1 = 0.664 | 0.0497 ± 0.000717
x1 = 0.6784 | 0.0488 ± 0.000717
x1 = 0.6934 | 0.0476 ± 0.000717
x1 = 0.7092 | 0.0464 ± 0.000717
x1 = 0.7256 | 0.0449 ± 0.000717
x1 = 0.7398 | 0.0435 ± 0.000717
x1 = 0.7546 | 0.0421 ± 0.000717
x1 = 0.7699 | 0.0404 ± 0.000717
x1 = 0.7859 | 0.0382 ± 0.000717
x1 = 0.8026 | 0.0361 ± 0.000478
x1 = 0.8199 | 0.0337 ± 0.000478
x1 = 0.8353 | 0.0313 ± 0.000478
x1 = 0.8513 | 0.0289 ± 0.000478
x1 = 0.8679 | 0.0263 ± 0.000478
x1 = 0.8852 | 0.0234 ± 0.000478
x1 = 0.9032 | 0.0203 ± 0.000478
x1 = 0.918 | 0.0177 ± 0.000478
x1 = 0.9333 | 0.0146 ± 0.000239
x1 = 0.9491 | 0.0112 ± 0.000239
x1 = 0.9655 | 0.00765 ± 0.000239
x1 = 0.9824 | 0.00406 ± 0.000239

CCCCCCCCC(C)=O [2-decanone] + CCCCCCCCCCCCCCCC
Conditions | excess molar enthalpy [kcal/mol]
x1 = 0.0372 | 0.048 ± 0.000717
x1 = 0.0716 | 0.087 ± 0.0012
x1 = 0.1038 | 0.119 ± 0.00167
x1 = 0.1337 | 0.145 ± 0.00191
x1 = 0.1617 | 0.167 ± 0.00215
x1 = 0.188 | 0.185 ± 0.00239
x1 = 0.2169 | 0.203 ± 0.00263
x1 = 0.2437 | 0.217 ± 0.00287
x1 = 0.2688 | 0.229 ± 0.00287
x1 = 0.2923 | 0.239 ± 0.00311
x1 = 0.3143 | 0.246 ± 0.00311
x1 = 0.335 | 0.253 ± 0.00311
x1 = 0.3574 | 0.258 ± 0.00335
x1 = 0.3784 | 0.263 ± 0.00335
x1 = 0.3981 | 0.266 ± 0.00335
x1 = 0.4166 | 0.268 ± 0.00335
x1 = 0.434 | 0.27 ± 0.00335
x1 = 0.4503 | 0.27 ± 0.00335
x1 = 0.4686 | 0.27 ± 0.00335
x1 = 0.4857 | 0.27 ± 0.00335
x1 = 0.5017 | 0.269 ± 0.00335
x1 = 0.5168 | 0.268 ± 0.00335
x1 = 0.531 | 0.266 ± 0.00335
x1 = 0.5443 | 0.264 ± 0.00335
x1 = 0.559 | 0.261 ± 0.00335
x1 = 0.5728 | 0.259 ± 0.00335
x1 = 0.5858 | 0.256 ± 0.00335
x1 = 0.598 | 0.253 ± 0.00311
x1 = 0.6095 | 0.25 ± 0.00311
x1 = 0.6204 | 0.247 ± 0.00311
x1 = 0.6324 | 0.243 ± 0.00311
x1 = 0.6436 | 0.239 ± 0.00311
x1 = 0.6542 | 0.236 ± 0.00311
x1 = 0.6641 | 0.232 ± 0.00287
x1 = 0.6735 | 0.228 ± 0.00287
x1 = 0.6824 | 0.224 ± 0.00287
x1 = 0.6964 | 0.217 ± 0.00287
x1 = 0.7102 | 0.21 ± 0.00263
x1 = 0.7245 | 0.204 ± 0.00263
x1 = 0.7393 | 0.197 ± 0.00263
x1 = 0.7521 | 0.191 ± 0.00239
x1 = 0.7655 | 0.184 ± 0.00239
x1 = 0.7793 | 0.176 ± 0.00215
x1 = 0.7936 | 0.168 ± 0.00215
x1 = 0.8084 | 0.159 ± 0.00215
x1 = 0.8238 | 0.149 ± 0.00191
x1 = 0.8372 | 0.14 ± 0.00191
x1 = 0.8511 | 0.13 ± 0.00167
x1 = 0.8654 | 0.12 ± 0.00167
x1 = 0.8802 | 0.109 ± 0.00143
x1 = 0.8955 | 0.0966 ± 0.0012
x1 = 0.9114 | 0.0837 ± 0.0012
x1 = 0.9251 | 0.0722 ± 0.000956
x1 = 0.9391 | 0.0598 ± 0.000956
x1 = 0.9537 | 0.0461 ± 0.000717
x1 = 0.9686 | 0.0318 ± 0.000478
x1 = 0.9841 | 0.0163 ± 0.000478
